Like-named read-outs stand apart in the source and are kept apart here.
What was measured:
B. henselae [1] = settings: cited from earlier work
B. henselae [2] = test: MIC assay in liquid culture media (OD600); format: cell-based, Bartonella henselae; settings: Bartonella henselae, read-out: MIC
Protocol: (§1) The B. henselae strains used were San Antonio 2, 267HO04, a human clinical isolate and B. vinsonii subsp. berkhoffii. Both the bacteria were initially grown on tryptic soy agar (TSA) supplemented with 5% defibrinated sheep blood plates that were either pre-made (Remel, R01198) or homemade, in a humidified atmosphere at 37° C. with 5% CO2 for 7 days. For the preparation of liquid cultures, an individual well-grown colony from the plate was resuspended in 15 ml Falcon tubes containing 3 mL of either Schneider's insect media supplemented with 10% FBS, or Grace's insect media (Gibco, 11605-094) supplemented with 10% FBS, or BAPGM serum-free liquid media. The cultures grew for 7 more days in the atmosphere as above without shaking. The number of viable bacteria was determined by either plating serial dilutions of the culture on plates for CFU or by live/dead staining. Before every experiment, bacteria were mixed well and passed through 22-gauge needle to break large clumps of bacteria.
(§2) Optical density (OD) of 7-day old bacterial liquid culture that was grown from an individual colony was measured using a spectrophotometer (Bio-Rad, SmartSpec 300, 170-2501). Bacterial culture was then diluted down to an OD of 0.1 ? 3×10^8 cfu/ml with the respective media.
(§3) To determine the MIC of the antibiotics and for the visualization of the bacterial growth, a clear 96-well plate was used. Into each well of a 96-well plate, 50 μl of the 0.1 OD bacterial culture and 50 μl of the liquid media containing antibiotics were added to the wells bringing the total volume to 100 μl of 0.05 OD bacteria (CFU ? 1.5×10^7) in each well. Wells containing only bacteria with solvent used in the dilution of the antibiotics served as a positive control to verify the growth of bacteria. As a negative control, wells containing only media and solvents were used. Each concentration of diluted antibiotic was run in 4 replicates to minimize the error rate. The 96-well plate was covered with the lid and incubated at 37° C. with 5% CO2. OD of the culture was read after 48 hrs and 96 hrs using a hybrid multi-mode microplate reader (Biotek, Synergy H4 hybrid reader) at OD600. The assay was repeated three times.
(§4) Therapeutic agent stocks were prepared in the following solvents: 10 mg/ml of ceftriaxone (USP), doxycycline (Fisher scientific, D9891-1G), gentamicin (Fisher scientific, 1405-41-0), ampicillin (Fisher scientific, 69-52-3) and azlocillin (Flightpath) in sterile cell culture grade water, whereas 5 mg/ml of azithromycin (Sigma, PZ0007-5MG) was dissolved in sterile cell culture grade DMSO. Antibiotics were then aliquoted and stored at either −80° C. or −20° C. until further use. On the day of assay, these stock concentrations were diluted to 1 mg/ml and 100 μg/ml in the respected bacterial culture media for MIC and cell-free, liquid culture MBC assays. For the DH82 cell-based MBC assay, antibiotics were diluted in EMEM media supplemented with 15% heat inactivated FBS.
(§5) The determination of susceptibility to therapeutic agents was performed in liquid culture media. Six different therapeutic agents were tested with multiple different concentrations against B. henselae and B. vinsonii. Therapeutic agent concentrations tested were as follows: Ceftriaxone 0.001, 0.01, 0.1, 0.3, 0.5, 1, 2, and 5 μg/ml; doxycycline 0.001, 0.01, 0.1, 0.3, 0.5, 1, 2, 5, and 10 μg/ml, gentamicin: 0.01, 0.1, 0.3, 0.5, 1, 2, 4, 8, and 16 μg/ml, and azithromycin: 0.001, 0.005, 0.02, 0.1, 0.3, 0.5, 1, 2, 5, and 10 μg/ml, were tested based on previous antibiotic susceptibility studies. The following azlocillin dilutions were included: 0.001, 0.005, 0.01, 0.02, 0.5, 1, 2, and 5 μg/ml. The ampicillin dilutions included were as follows: 0.001, 0.005, 0.01, 0.02, 0.5, 1, 2, 4, and 8 μg/ml. Both the species of Bartonella were susceptible to all the antibiotics that were used in BAPGM and Grace's culture liquid mediums. […]

B. vinsonii [3] = test: MIC assay in liquid culture media (OD600); format: cell-based, B. vinsonii subsp. berkhoffii; settings: Grace's insect media, read-out: MIC
Protocol: as §1, §2, §3, §4, §5

B. henselae [4] = test: Cell-free, liquid culture MBC assay; format: cell-based, Bartonella henselae; settings: Bartonella henselae, 96 hrs, plated on blood agar, read-out: MBC
Protocol: as §1
(§6) Briefly, the bacterial culture that was treated with therapeutic agents for 96 hrs was collected into a 1.5 ml microcentrifuge tubes and centrifuged at 7000 rpm for 10 min. The supernatant was removed, and the bacterial pellet was washed with 1×PBS twice. The bacterial pellet was then resuspended in 100 μL of 1×PBS, plated onto blood agar plates and incubated at 37° C. with 5% CO2 for about 14 days. This assay was repeated three times with all the 6 different antibiotics (azlocillin, azithromycin, ceftriaxone, doxycycline, gentamicin and ampicillin) and at different concentrations.
as §4
For this assay, both B. henselae and B. vinsonii were grown in Grace's insect media and were tested against all of the 6 antibiotics (ceftriaxone, doxycycline, gentamicin, azithromycin, azlocillin, ampicillin).

B. vinsonii [5] = test: Cell-free, liquid culture MBC assay; format: cell-based, B. vinsonii subsp. berkhoffii; settings: 96 hrs, plated on blood agar, read-out: MBC
Protocol: as §1, §6, §4
(§7) For this assay, both B. henselae and B. vinsonii were grown in Grace's insect media and were tested against all of the 6 antibiotics (ceftriaxone, doxycycline, gentamicin, azithromycin, azlocillin, ampicillin). […] However, ceftriaxone, gentamicin, azithromycin, and azlocillin were all bactericidal and completely eliminated the growth at concentrations below 10 µg/ml. Table 2 provides comparison of MBCs for B. henselae and B. vinsonii strains in cell-free liquid culture medium determined by incubating the bacteria with antibiotics in a 96-well plate and plating on tryptic soy agar supplemented with 5% sheep blood. Additionally, MBC for B. henselae determined by DH82 cell-based assay (right column) is provided.

[6] = system: B. henselae and B. vinsonii; test: Cell-free MBC assay, summary over both species; format: cell-based, Bartonella; settings: both species; Grace's insect media
Protocol: as §6, §7

[7] = system: intracellular B. henselae in DH82 cells; test: DH82 cell-based MBC assay (coculture); design: species or system Bartonella henselae (canine DH82 cells); settings: Bartonella henselae; B. henselae; DH82 cell-based assay; 96 hours; read-out: MBC
Protocol: DH82 are a canine cell line having a macrophage-like morphology. Cells were initially cultured in T75-Flasks (Corning, 430641U) until confluency was reached and were split at a ratio of 1:4 for every 2-3 days. Cells were then seeded into either 24-well cell culture plates (Corning, 3526) for coculture assay or 8-well chamber slides (Millipore #PEGGS0816) for immunofluorescence assays. A total of 50,000 cells were seeded into each well of a 24-well plate or per chamber of an 8-well chamber slide with EMEM with 15% FBS and incubated for 24-48 hours before infections.
as §4
Bacteria (B. henselae) that were grown in Grace's insect media, were centrifuged at 7000 rpm for 10 min. The supernatant was removed and washed with 1×PBS for three times. After the washes, pellet was resuspended in EMEM media supplemented with 15% heat inactivated FBS. This bacterial suspension was then added to DH82 cells at a multiplicity of infection (MOI) of 1:50 and incubated for 2 hours. After 2 hours, unbound bacteria were removed by washing the cells with only EMEM media 3 times each 15 min wash. Cells were then incubated with EMEM+15% FBS media at 37° C. with 5% CO2 for 48 hours.
After 48 hrs of incubation, the media was removed from the cells and the therapeutic agents that were diluted in EMEM+15% FBS was added. Each therapeutic agent was diluted at 11 different concentrations (16, 8, 4, 2, 1, 0.5, 0.25, 0.125, 0.062, 0.031, 0.0156 μg/ml), as described above and incubated for 96 hours. […] The bactericidal activity of the therapeutic agents were then evaluated by plating the lysed cells on blood agar plates. Briefly, infected DH82 cells were initially washed for 30 min twice to remove the antibiotics that were added. Later, cells were osmotically lysed by adding 1 ml of sterile ice-cold distilled water and incubated for 5 min on ice. The lysed cells were then plated onto blood agar plates and incubated at 37° C. with 5% CO2 for about 10 days to evaluate the growth of viable B. henselae. This experiment was conducted in duplicates and repeated twice with all 6 antibiotics including 11 different concentrations. The untreated infected cells were used as a positive control and untreated uninfected cells served as a negative control. The CFU counts are presented as average±standard deviation.
To evaluate the bactericidal activity and to determine if these antibiotics could penetrate the eukaryotic […], a new DH82 cell-based coculture system was utilized. […] Uninfected cells stained with primary rabbit B. henselaehyperimmunized polyclonal (primary) and goat anti-rabbit IgG Alexa fluor 594 (secondary) antibodies were used as a negative control. As an isotype control, DH82 cells infected with B. henselae and incubated with primary rabbit IgG were used.

B. henselae [8] = settings: E-test methodology or agar dilution method; cited from earlier work

| MIC (B. henselae [2]; BAPGM) [µg/mL] | SMILES | activity against growing bacterial culture (B. henselae [1]) | activity against stationary phase B. henselae (B. henselae [1]) | MIC (B. henselae [2]; Grace's insect media) [µg/mL] | MIC (B. henselae [2]; Schneider's insect medium) [µg/mL] | MIC (B. vinsonii [3]) [µg/mL] | MBC (B. henselae [4]) [µg/mL] | MBC (B. vinsonii [5]) [µg/mL] | concentration that did not completely inhibit the growth of bacteria [6] [µg/mL] | MBC [7] [µg/mL] | inhibition in the growth of B. henselae in vitro (B. henselae [8]) |
| --- | --- | --- | --- | --- | --- | --- | --- | --- | --- | --- | --- |
|  | O=C(O)c1cn(C2CC2)c2cc(N3CCNCC3)c(F)cc2c1=O [ciprofloxacin] | effective | very poor activity |  |  |  |  |  |  |  |  |
| 0.01 to 0.1 | C[C@H]1c2cccc(O)c2C(=O)C2=C(O)[C@]3(O)C(=O)C(C(N)=O)=C(O)[C@@H](N(C)C)[C@@H]3[C@@H](O)[C@@H]21 [Doxycycline, doxycycline] |  |  | 0.01 to 0.1 | > 0.3 | 0.01 to 0.1 | > 10 | > 10 | > 10 | > 16 |  |
|  | CC1(C)S[C@@H]2[C@H](NC(=O)[C@H](N)c3ccccc3)C(=O)N2[C@H]1C(=O)O [Ampicillin, ampicillin] |  |  | 0.02 to 0.1 |  | 0.01 to 0.02 | > 8 | > 8 | > 8 | > 16 |  |
|  | CC[C@H]1OC(=O)[C@H](C)[C@@H](O[C@H]2C[C@@](C)(OC)[C@@H](O)[C@H](C)O2)[C@H](C)[C@@H](O[C@@H]2O[C@H](C)C[C@H](N(C)C)[C@H]2O)[C@](C)(O)C[C@@H](C)C(=O)[C@H](C)[C@@H](O)[C@]1(C)O [crythromycin] | effective | very poor activity |  |  |  |  |  |  |  |  |
|  | CO[C@H]1/C=C/O[C@@]2(C)Oc3c(C)c(O)c4c(O)c(c(/C=N/N5CCN(C)CC5)c(O)c4c3C2=O)NC(=O)/C(C)=C\C=C\[C@H](C)[C@H](O)[C@@H](C)[C@@H](O)[C@@H](C)[C@H](OC(C)=O)[C@@H]1C [rifampin] | effective | very poor activity |  |  |  |  |  |  |  | Inhibition in the growth |

Reference: US20240269158A1, “THERAPEUTIC AGENTS AND METHODS FOR TREATMENT OF BARTONELLOSIS” (THE ADMINISTRATORS OF THE TULANE EDUCATIONAL FUND, priority 2021, published 2024)
